Measured values: US20140309265A1, “MACROCYCLIC COMPOUNDS FOR INHIBITION OF INHIBITORS OF APOPTOSIS” (Ensemble Therapeutics, priority 2011, published 2014)

Tests used:
[1] = molecular target: T1, His-BIR2-3 (125-356, C202A/C213G, XIAP) (Homo sapiens, UniProt P98170, C202A/C213G); assay: XIAP-BIR2-3 Dimeric SMAC Peptide Homogeneous Time Resolved Fluorescence (HTRF) Assay; type: binding; details: XIAP BIR2-3, HTRF, Table 4
T1 construct: additions of His-BIR2-3 (125-356, C202A/C213G, XIAP), fluorescein labeled dimeric SMAC peptide
T1 sequence (P98170 125-356 C202A/C213G): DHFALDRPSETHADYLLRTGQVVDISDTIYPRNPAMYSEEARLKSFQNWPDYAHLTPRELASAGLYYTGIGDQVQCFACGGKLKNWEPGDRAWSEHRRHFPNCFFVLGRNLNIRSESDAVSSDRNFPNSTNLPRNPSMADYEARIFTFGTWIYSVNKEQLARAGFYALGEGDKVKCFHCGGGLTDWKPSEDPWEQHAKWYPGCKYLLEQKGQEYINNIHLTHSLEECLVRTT

His-BIR3 (241-356, XIAP) = molecular target: T2, His-BIR3 (241-356, XIAP) (Homo sapiens, UniProt P98170); assay: XIAP-BIR3/SMAC Homogeneous Time Resolved Fluorescence (HTRF) Assay; type: binding; details: Table 4
T2 construct: additions of His-BIR3 (241-356, XIAP), fluorescein labeled SMAC peptide
T2 sequence (P98170 241-356): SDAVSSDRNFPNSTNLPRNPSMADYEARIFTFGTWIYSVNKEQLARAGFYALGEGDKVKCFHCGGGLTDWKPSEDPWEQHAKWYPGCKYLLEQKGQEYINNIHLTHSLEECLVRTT

SMILES	IC50 [1] [µM]	IC50 (His-BIR3 (241-356, XIAP)) [µM]
CN[C@@H](C)C(=O)N[C@H](C(=O)N1C[C@@H]2C[C@H]1C(=O)N[C@@H](Cc1ccc3ccccc3c1)C(=O)N[C@H](C(=O)O)Cc1ccc(cc1)OCc1cn(nn1)[C@H]1C[C@@H](C(=O)N[C@@H](Cc3ccc4ccccc4c3)C(=O)N[C@H](C(=O)OC)Cc3ccc(cc3)OCc3cn2nn3)N(C(=O)[C@@H](NC(=O)[C@H](C)NC)C(C)(C)C)C1)C(C)(C)C [Compound 1001]	> 0.01	> 0.1
CN[C@@H](C)C(=O)N[C@H](C(=O)N1C[C@@H]2C[C@H]1C(=O)N[C@@H](Cc1ccc3ccccc3c1)C(=O)N[C@H](C(=O)O)Cc1ccc(cc1)OCc1cn(nn1)[C@H]1C[C@@H](C(=O)N[C@@H](Cc3ccc4ccccc4c3)C(=O)N[C@H](C(=O)O)Cc3ccc(cc3)OCc3cn2nn3)N(C(=O)[C@@H](NC(=O)[C@H](C)NC)C23CC4CC(CC(C4)C2)C3)C1)C12CC3CC(CC(C3)C1)C2 [Compound 1008]	≤ 0.001	0.01 to 0.1
CN[C@@H](C)C(=O)N[C@H](C(=O)N1C[C@@H]2C[C@H]1C(=O)N[C@@H](Cc1ccc3ccccc3c1)C(=O)N[C@H](C(=O)O)Cc1ccc(cc1)OCc1cn(nn1)[C@H]1C[C@@H](C(=O)N[C@@H](Cc3ccc4ccccc4c3)C(=O)N[C@H](C(=O)O)Cc3ccc(cc3)OCc3cn2nn3)N(C(=O)[C@@H](NC(=O)[C@H](C)NC)C23CC4CC(CC(O)(C4)C2)C3)C1)C12CC3CC(CC(O)(C3)C1)C2 [Compound 1009]	0.001 to 0.01	< 0.01
CN[C@@H](C)C(=O)N[C@H](C(=O)N1C[C@@H]2C[C@H]1C(=O)N[C@@H](Cc1ccc3ccccc3c1)C(=O)N[C@H](C(=O)O)Cc1ccc(cc1)OCCCc1cn(nn1)[C@H]1C[C@@H](C(=O)N[C@@H](Cc3ccc4ccccc4c3)C(=O)N[C@H](C(=O)O)Cc3ccc(cc3)OCCCc3cn2nn3)N(C(=O)[C@@H](NC(=O)[C@H](C)NC)C(C)(C)C)C1)C(C)(C)C [Compound 1011]	0.001 to 0.01	< 0.01
CN[C@@H](C)C(=O)N[C@H](C(=O)N1C[C@@H]2C[C@H]1C(=O)N[C@@H](Cc1ccc3ccccc3c1)C(=O)N[C@H](C(=O)O)Cc1ccc(cc1)NC(=O)CCc1cn(nn1)[C@H]1C[C@@H](C(=O)N[C@@H](Cc3ccc4ccccc4c3)C(=O)N[C@H](C(=O)O)Cc3ccc(cc3)NC(=O)CCc3cn2nn3)N(C(=O)[C@@H](NC(=O)[C@H](C)NC)C(C)(C)C)C1)C(C)(C)C [Compound 1012]	0.001 to 0.01	< 0.01
CNC(C)C(=O)NC(C(=O)N1CC2CC1C(=O)NC(Cc1ccc3ccccc3c1)C(=O)NC(C(=O)O)Cc1ccc(cc1)OCc1cn(nn1)C1CC(C(=O)NC(Cc3ccc4ccccc4c3)C(=O)NC(C(=O)O)c3ccc(cc3)OCc3cn2nn3)N(C(=O)C(NC(=O)C(C)NC)C(C)(C)C)C1)C(C)(C)C (stereo not drawn) [Compound 1013]	≤ 0.001	< 0.01
CN[C@@H](C)C(=O)N[C@H](C(=O)N1C[C@@H]2C[C@H]1C(=O)N[C@@H](Cc1ccc3ccccc3c1)C(=O)N[C@H](C(=O)O)Cc1ccc(cc1)NC(=O)c1cn(nn1)[C@H]1C[C@@H](C(=O)N[C@@H](Cc3ccc4ccccc4c3)C(=O)N[C@H](C(=O)O)Cc3ccc(cc3)OCc3cn2nn3)N(C(=O)[C@@H](NC(=O)[C@H](C)NC)C(C)(C)C)C1)C(C)(C)C [Compound 1014]	≤ 0.001	< 0.01
CN[C@@H](C)C(=O)N[C@H](C(=O)N1C[C@@H]2C[C@H]1C(=O)N[C@@H](Cc1ccc3ccccc3c1)C(=O)N[C@H](C(=O)O)Cc1ccc(cc1)-c1cn(nn1)[C@H]1C[C@@H](C(=O)N[C@@H](Cc3ccc4ccccc4c3)C(=O)N[C@H](C(=O)O)Cc3ccc(cc3)OCc3cn2nn3)N(C(=O)[C@@H](NC(=O)[C@H](C)NC)C(C)(C)C)C1)C(C)(C)C [Compound 1015]	0.001 to 0.01	0.01 to 0.1
CN[C@@H](C)C(=O)N[C@H](C(=O)N1C[C@@H]2C[C@H]1C(=O)N[C@@H](Cc1ccc3ccccc3c1)C(=O)N[C@H](C(=O)O)Cc1ccc(cc1)OCc1cn(nn1)[C@H]1C[C@@H](C(=O)N[C@@H](Cc3ccc4ccccc4c3)C(=O)N[C@H](C(=O)O)Cc3ccc(cc3)NC(=O)CCc3cn2nn3)N(C(=O)[C@@H](NC(=O)[C@H](C)NC)C(C)(C)C)C1)C(C)(C)C [Compound 1016]	≤ 0.001	< 0.01
CN[C@@H](C)C(=O)N[C@H](C(=O)N1C[C@@H]2C[C@H]1C(=O)N[C@@H](Cc1ccc3ccccc3c1)C(=O)N[C@H](C(=O)O)Cc1ccc(cc1)OCc1cn(nn1)[C@H]1C[C@@H](C(=O)N[C@@H](Cc3ccc4ccccc4c3)C(=O)N[C@H](C(=O)O)Cc3ccc(cc3)OCCc3cn2nn3)N(C(=O)[C@@H](NC(=O)[C@H](C)NC)C(C)(C)C)C1)C(C)(C)C [Compound 1017]	≤ 0.001	< 0.01
CN[C@@H](C)C(=O)N[C@H](C(=O)N1C[C@@H]2C[C@H]1C(=O)N[C@@H](Cc1ccc3ccccc3c1)C(=O)N[C@H](C(=O)O)Cc1ccc(cc1)OCc1cn(nn1)[C@H]1C[C@@H](C(=O)N[C@@H](Cc3ccc4ccccc4c3)C(=O)N[C@H](C(=O)NCC(=O)O)Cc3ccc(cc3)OCc3cn2nn3)N(C(=O)[C@@H](NC(=O)[C@H](C)NC)C(C)(C)C)C1)C(C)(C)C [Compound 1018]	0.001 to 0.01	< 0.01
CN[C@@H](C)C(=O)N[C@H](C(=O)N1C[C@@H]2C[C@H]1C(=O)N[C@@H](Cc1ccc3ccccc3c1)C(=O)N[C@H](C(=O)O)Cc1ccc(cc1)OCc1cn(nn1)[C@H]1C[C@@H](C(=O)N[C@@H](Cc3ccc4ccccc4c3)C(=O)N[C@H](C(=O)NCCC(=O)O)Cc3ccc(cc3)OCc3cn2nn3)N(C(=O)[C@@H](NC(=O)[C@H](C)NC)C(C)(C)C)C1)C(C)(C)C [Compound 1019]	0.001 to 0.01	< 0.01
CN[C@@H](C)C(=O)N[C@H](C(=O)N1C[C@@H]2C[C@H]1C(=O)N[C@@H](Cc1ccc3ccccc3c1)C(=O)N[C@H](C(=O)O)Cc1ccc(cc1)OCc1cn(nn1)[C@H]1C[C@@H](C(=O)N[C@@H](Cc3ccc4ccccc4c3)C(=O)N[C@H](C(=O)N(C)CC(=O)O)Cc3ccc(cc3)OCc3cn2nn3)N(C(=O)[C@@H](NC(=O)[C@H](C)NC)C(C)(C)C)C1)C(C)(C)C [Compound 1020]	0.001 to 0.01	0.01 to 0.1
CN[C@@H](C)C(=O)N[C@H](C(=O)N1C[C@@H]2C[C@H]1C(=O)N[C@@H](Cc1ccc3ccccc3c1)C(=O)N[C@H](C(=O)O)Cc1ccc(cc1)OCc1cn(nn1)[C@H]1C[C@@H](C(=O)N[C@@H](Cc3ccc4ccccc4c3)C(=O)N[C@H](C(=O)N3CCC(C(=O)O)C3)Cc3ccc(cc3)OCc3cn2nn3)N(C(=O)[C@@H](NC(=O)[C@H](C)NC)C(C)(C)C)C1)C(C)(C)C (stereo partly drawn) [Compound 1021]	0.001 to 0.01	< 0.01
CN[C@@H](C)C(=O)N[C@H](C(=O)N1C[C@@H]2C[C@H]1C(=O)N[C@@H](Cc1ccc3ccccc3c1)C(=O)N[C@H](C(=O)O)Cc1ccc(cc1)OCc1cn(nn1)[C@H]1C[C@@H](C(=O)N[C@@H](Cc3ccc4ccccc4c3)C(=O)N[C@H](C(=O)NCc3nnn[nH]3)Cc3ccc(cc3)OCc3cn2nn3)N(C(=O)[C@@H](NC(=O)[C@H](C)NC)C(C)(C)C)C1)C(C)(C)C [Compound 1022]	0.001 to 0.01	< 0.01
CN[C@@H](C)C(=O)N[C@H](C(=O)N1C[C@@H]2C[C@H]1C(=O)N[C@@H](Cc1ccc3ccccc3c1)C(=O)N[C@H](C(=O)O)Cc1ccc(cc1)OCc1cn(nn1)[C@H]1C[C@@H](C(=O)N[C@@H](Cc3ccc4ccccc4c3)C(=O)N[C@H](C(=O)NCc3ccc(-c4nnn[nH]4)cc3)Cc3ccc(cc3)OCc3cn2nn3)N(C(=O)[C@@H](NC(=O)[C@H](C)NC)C(C)(C)C)C1)C(C)(C)C [Compound 1023]	0.001 to 0.01	< 0.01
CN[C@@H](C)C(=O)N[C@H](C(=O)N1C[C@@H]2C[C@H]1C(=O)N[C@@H](Cc1ccc3ccccc3c1)C(=O)N[C@H](C(=O)O)Cc1ccc(cc1)OCc1cn(nn1)[C@H]1C[C@@H](C(=O)N[C@@H](Cc3ccc4ccccc4c3)C(=O)N[C@H](C(=O)N(C)C)Cc3ccc(cc3)OCc3cn2nn3)N(C(=O)[C@@H](NC(=O)[C@H](C)NC)C(C)(C)C)C1)C(C)(C)C [Compound 1024]	0.001 to 0.01	< 0.01
CN[C@@H](C)C(=O)N[C@H](C(=O)N1C[C@@H]2C[C@H]1C(=O)N[C@@H](Cc1ccc3ccccc3c1)C(=O)N[C@H](C(=O)O)Cc1ccc(cc1)OCc1cn(nn1)[C@H]1C[C@@H](C(=O)N[C@@H](Cc3ccc4ccccc4c3)C(=O)N[C@H](C(=O)NCc3cccc(-c4nnn[nH]4)c3)Cc3ccc(cc3)OCc3cn2nn3)N(C(=O)[C@@H](NC(=O)[C@H](C)NC)C(C)(C)C)C1)C(C)(C)C [Compound 1025]	0.001 to 0.01	< 0.01
CN[C@@H](C)C(=O)N[C@H](C(=O)N1C[C@@H]2C[C@H]1C(=O)N[C@@H](Cc1ccc3ccccc3c1)C(=O)N[C@H](C(=O)O)Cc1ccc(cc1)OCc1cn(nn1)[C@H]1C[C@@H](C(=O)N[C@@H](Cc3ccc4ccccc4c3)C(=O)N[C@H](C(=O)N3CC(C(=O)O)C3)Cc3ccc(cc3)OCc3cn2nn3)N(C(=O)[C@@H](NC(=O)[C@H](C)NC)C(C)(C)C)C1)C(C)(C)C [Compound 1026]	0.001 to 0.01	0.01 to 0.1
CN[C@@H](C)C(=O)N[C@H](C(=O)N1CCN2CCn3cc(nn3)C[C@@H](C(=O)O)NC(=O)[C@H](Cc3ccc4ccccc4c3)NC(=O)[C@@H]3CN(CCN3C(=O)[C@@H](NC(=O)[C@H](C)NC)C(C)(C)C)CCn3cc(nn3)C[C@@H](C(=O)O)NC(=O)[C@H](Cc3ccc4ccccc4c3)NC(=O)[C@@H]1C2)C(C)(C)C [Compound 1050]	> 0.01	
